Data: US11285139B2, “Treatment of CNS conditions” (Takeda Pharmaceutical Company Limited, priority 2017, dated 2022)

Tests used:
Assay type in all cases: in vivo
Scn1a+/−mice = assay: spontaneous seizures in Scn1a+/− mouse model of Dravet syndrome; conditions: chow containing 0.02% (w/w) for 2 weeks, started at 17-18 days after birth; control group 23.9%
Description: The following Example provides data from a heterozygous deletion of a Scn1a mouse model (Scn1a+/−mice) of Dravet syndrome, a developmental epileptic encephalopathy subtype. Myoclonic and generalized tonic-clonic seizures are observed, which correlate to symptoms in humans. Therefore, (4-benzyl-4-hydroxypiperidin-1-yl) (2,4′-bipyridin-3-yl)methanone was tested in Scn1a+/−mice for its potential effects on seizure. At 17-18 days after birth, mice were weaned and started on treatment either with control chow or chow containing (4-benzyl-4-hydroxypiperidin-1-yl) (2,4′-bipyridin-3-yl)methanone 0.02% (w/w) for 2 weeks. Spontaneous seizures were continuously monitored. The seizure free rate during the study period for the control group was 23.9%.

CH24H = target: T1, CH24H (Homo sapiens, UniProt Q9Y6A2); assay: single-dose positron emission tomography (PET) target occupancy study
T1 construct: single-dose positron emission tomography (PET) target occupancy study; from tissue; host or cells: brain of study participants, in vivo (brain is inferred from the statement that CH24H is expressed in neurons)
Description: (§1) Four clinical studies including a single-rising dose (SRD) first-in-human study, a single-dose positron emission tomography (PET) target occupancy study, a multiple-rising dose (MRD) study, and a single-dose relative bioavailability (BA) and food-effect study were conducted.
The pharmacokinetics (PK) and pharmacodynamics (PD) of (4-benzyl-4-hydroxypiperidin-1-yl) (2,4′-bipyridin-3-yl)methanone were characterized in these studies.

[1] = single-rising dose (SRD) first-in-human study, safety evaluation
Description: as §1

T1 sequence (Q9Y6A2 whole entry): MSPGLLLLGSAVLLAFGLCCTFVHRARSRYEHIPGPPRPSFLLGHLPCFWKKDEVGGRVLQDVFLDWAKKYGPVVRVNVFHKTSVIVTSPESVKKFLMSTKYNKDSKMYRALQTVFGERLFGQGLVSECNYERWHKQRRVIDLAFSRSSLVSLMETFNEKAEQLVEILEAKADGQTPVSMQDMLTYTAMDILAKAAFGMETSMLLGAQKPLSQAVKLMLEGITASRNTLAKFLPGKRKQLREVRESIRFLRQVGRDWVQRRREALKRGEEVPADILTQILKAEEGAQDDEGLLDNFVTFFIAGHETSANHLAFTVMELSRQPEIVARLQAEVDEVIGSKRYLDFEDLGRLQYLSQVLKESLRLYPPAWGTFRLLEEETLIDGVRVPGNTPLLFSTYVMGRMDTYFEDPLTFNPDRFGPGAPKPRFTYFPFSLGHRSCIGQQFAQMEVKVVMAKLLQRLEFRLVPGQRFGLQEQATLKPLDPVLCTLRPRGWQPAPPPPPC

In the case of O=C(c1cccnc1-c1ccncc1)N1CCC(O)(Cc2ccccc2)CC1 [(4-benzyl-4-hydroxypiperidin-1-yl) (2,4′-bipyridin-3-yl)methanone], the “seizure free rate during the study period” value (Scn1a+/−mice) is reported as 91.7%, the “plasma 24HC concentrations” value (CH24H) is reported as “dose-dependent decreases” and the PET occupancy measurements (CH24H; correlated with circulating levels of 24HC) is reported as “dose- and time-dependent”. The “serious pretreatment events or post treatment adverse events” value ([1]; all cohorts, 15-1350 mg single oral dose) was “No serious pretreatment events or post treatment adverse events were reported” and the safety and tolerability ([1]; doses up to 1350 mg single dose, healthy male and female subjects) was “generally safe and well tolerated”.
